From US9510598B2, “Nitrogen-containing heterocyclic compounds for plant disease control” (BAYER CROPSCIENCE AG, priority 2012, dated 2016)
Read-outs that look alike come from different tables or passages of the source.

Legend:
[1] = assay type: physicochemical
Puccinia recondita = assay: In vivo preventive test on Puccinia recondita (brown rust on wheat); details: 500 ppm; wheat plants sprayed 24 hours before contamination; grading 10 days after contamination vs control plants
Description: Wheat plants (“Scipion” variety), sown in starter cups on a 50/50 peat soil-pozzolana substrate and grown at 22° C. (12 h)/20° C. (12 h), are treated at the 1-leaf stage (10 cm height) by spraying with the active ingredient prepared as described above. Plants, used as controls, are treated with the mixture of acetone/tween/DMSO/water not containing the active material. After 24 hours, the plants are contaminated by spraying the leaves with an aqueous suspension of Puccinia recondita spores (100 000 spores per ml).

Septoria tritici = assay: In vivo preventive test on Septoria tritici (leaf spot on wheat); details: 500 ppm; wheat plants sprayed 24 hours before contamination; grading 21 to 28 days after contamination vs control plants
Summary of the method: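 Scipion wheat at 1-leaf stage sprayed with compound, controls receiving acetone/tween/DMSO/water vehicle; 24 h later leaves inoculated with Septoria tritici spores (500 000 spores per ml). Efficacy (%) graded versus control plants 21 to 28 days after contamination.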

Alternaria brassicae = assay: In vivo preventive test on Alternaria brassicae (leaf spot on radish); details: 500 ppm; radish plants sprayed 24 hours before contamination; grading 5 days after contamination vs control plants
Description: Radish plants (“Pernod Clair” variety), sown in starter cups on a 50/50 peat soil-pozzolana substrate and grown at 17° C., are treated at the 2-leaf stage by spraying with the active ingredient prepared as described above. Plants, used as controls, are treated with the mixture of acetone/tween/DMSO/water not containing the active material. After 24 hours, the plants are contaminated by spraying the leaves with an aqueous suspension of Alternaria brassicae spores (50 000 spores per ml). The spores are collected from a 15-day-old culture. […] Grading (% of efficacy) is carried out 5 days after the contamination, in comparison with the control plants.

Botrytis cinerea = assay: In vivo preventive test on Botrytis cinerea (grey mould); details: 500 ppm; gherkin plants sprayed 24 hours before contamination; grading 4-5 days after contamination vs control plants
Summary of the method: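 Gherkin plants ("Vert petit de Paris") sprayed with compound at Z11 cotyledon stage, then inoculated 24 h later with B. cinerea spores (50 000/ml) in PDB/fructose/NH4NO3/KH2PO4 nutrient solution. Incubated at 17 °C, 80% RH; % efficacy versus solvent-treated controls graded 4–5 days after contamination.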

Sphaerotheca fuliginea = assay: In vivo preventive test on Sphaerotheca fuliginea (powdery mildew on cucurbits); details: 500 ppm; gherkin plants sprayed 24 hours before contamination; grading 12 days after contamination vs control plants
Summary of the method: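 Preventive spray of gherkin plants at Z11 cotyledon stage, grown at 24° C; inoculation 24 hours later with Sphaerotheca fuliginea spores (100 000 spores per ml). Efficacy graded 12 days post-inoculation as % versus solvent-treated control plants.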

Phytophthora infestans = assay type: in vivo; details: 500 ppm; tomato plants sprayed 24 hours before contamination; grading 5 days after contamination vs control plants
[2] = method [a]: HPLC/LC-MS on reversed phase at pH 2.7, 0.1% formic acid in water / acetonitrile, gradient 10% to 95% acetonitrile
[3] = HPLC on reversed phase columns, method [a]: pH 2.7, 0.1% formic acid in water / acetonitrile, linear gradient 10% to 95% acetonitrile
[4] = method [a]: HPLC/LC-MS on reversed phase at pH 2.7, 0.1% formic acid in water / acetonitrile, linear gradient 10% to 95% acetonitrile

SMILES	log P [1, 2]	% of efficacy (protection) (Septoria tritici) [%]	% of efficacy (protection) (Alternaria brassicae) [%]	log P [1, 4]	% of efficacy (protection) (Botrytis cinerea) [%]	other results
CC1(C(N)=O)CC(c2ccc3ncc(Br)cc3c2)=NO1 (racemic) [compound 380]	1.82[a]	–	–	–	–	% of efficacy (protection) (Puccinia recondita): 78%
CCC#Cc1cnc2ccc(C3=NOC(C)(C(=O)NCc4cn(CC)nc4C)C3)cc2c1 (racemic) [compound 394]	2.75[a]	–	–	–	–	% of efficacy (protection) (Puccinia recondita): 92%
C#Cc1cnc2ccc(C3=NOC(C)(C(=S)NCc4cnn(C)c4)C3)cc2c1 (racemic) [compound 451]	2.62[a]	94	–	–	–	% of efficacy (protection) (Puccinia recondita): 89%
CC1(C(=O)NC2CCC2)CC(c2ccc3ncc(I)cc3c2)=NO1 (racemic) [compound 454]	3.06[a]	–	–	–	–	% of efficacy (protection) (Puccinia recondita): 94%
C#Cc1cnc2ccc(C3=NOC(OC)(C(=O)N4CCCCO4)C3)cc2c1 (racemic) [compound 457]	2.41[a]	88	–	–	–	% of efficacy (protection) (Puccinia recondita): 83%
C#Cc1cnc2ccc(C3=NOC(C)(C(=O)NCC4OCCc5ccccc54)C3)cc2c1 (single isomer, unassigned) [compound 245]	–	71	94	–	–	log P [1, 3]: 2.92^[a]
Cc1cnc(CNC(=O)C2(C)CC(c3ccc4ncc(Br)cc4c3)=NO2)cn1 (stereo not drawn) [compound 85]	–	75	96	2.2^[a]	–	–
C#Cc1cnc2ccc(C3=NOC(C)(C(=O)NCc4ccncc4)C3)cc2c1 (stereo not drawn) [compound 99]	–	–	70	1.2^[a]	100	–
C#Cc1cnc2ccc(C3=NOC(C)(C(=O)NCc4ncc(C(F)(F)F)cc4Cl)C3)cc2c1 (stereo not drawn) [compound 157]	–	–	–	3.48^[a]	–	% of efficacy (protection) (Puccinia recondita): 72%
C#Cc1cnc2ccc(C3=NOC(C)(C(=O)NCc4cccs4)C3)cc2c1 (stereo not drawn) [compound 162]	–	86	88	2.73^[a]	99	% of efficacy (protection) (Sphaerotheca fuliginea): 94%
C#Cc1cnc2ccc(C3=NOC(C)(C(=O)NCc4ccco4)C3)cc2c1 (stereo not drawn) [compound 164]	–	–	88	2.51^[a]	71	–
C#Cc1cnc2ccc(C3=NOC(C)(C(=O)NCc4noc(C)n4)C3)cc2c1 (stereo not drawn) [compound 170]	–	71	81	1.99^[a]	100	–
Cc1nc(CNC(=O)C2(C)CC(c3ccc4ncc(Br)cc4c3)=NO2)no1 (stereo not drawn) [compound 171]	–	71	75	2.23^[a]	–	–
C#Cc1cnc2ccc(C3=NOC(C)(C(=O)NCc4cnn(C)c4C)C3)cc2c1 (stereo not drawn) [compound 178]	–	100	75	1.93^[a]	100	–
C#Cc1cnc2ccc(C3=NOC(C)(C(=O)NCc4cnn(C)c4)C3)cc2c1 (stereo not drawn) [compound 180]	–	100	75	1.86^[a]	95	% of efficacy (protection) (Phytophthora infestans): 86%; % of efficacy (protection) (Sphaerotheca fuliginea): 98%
C#Cc1cnc2ccc(C3=NOC(C)(C(=O)NCC4CCOC4)C3)cc2c1 (stereo not drawn) [compound 214]	–	100	75	1.98^[a]	100	% of efficacy (protection) (Sphaerotheca fuliginea): 78%

SMILES	log P [1, 2]	% of efficacy (protection) (Septoria tritici) [%]	% of efficacy (protection) (Alternaria brassicae) [%]	log P [1, 4]	% of efficacy (protection) (Botrytis cinerea) [%]	other results
CC1(C(=O)NC2CC2C2CC2)CC(c2ccc3ncc(Br)cc3c2)=NO1 (stereo not drawn) [compound 215]	–	86	75	3.29^[a]	87	–
C#Cc1cnc2ccc(C3=NOC(C)(C(=O)NCc4ccc5c(c4)OCC5)C3)cc2c1 (stereo not drawn) [compound 220]	–	–	88	2.82^[a]	100	–
C#Cc1cnc2ccc(C3=NOC(C)(C(=O)NCc4ccc5ncccc5c4)C3)cc2c1 (stereo not drawn) [compound 227]	–	93	75	1.59^[a]	92	–
CC1(C(=O)NC2CCC2)CC(c2ccc3ncc(Br)cc3c2)=NO1 (stereo not drawn) [compound 234]	–	86	75	–	99	log P [1, 3]: 2.9^[a]; % of efficacy (protection) (Sphaerotheca fuliginea): 94%
C#Cc1cnc2ccc(C3=NOC(C)(C(=O)NCc4ccc5ccoc5c4)C3)cc2c1 (stereo not drawn) [compound 242]	–	86	94	–	86	log P [1, 3]: 3^[a]
C#Cc1cnc2ccc(C3=NOC(C)(C(=O)NCc4csc5ccc(Cl)cc45)C3)cc2c1 (stereo not drawn) [compound 244]	–	–	81	–	–	log P [1, 3]: 3.74^[a]
C#Cc1cnc2ccc(C3=NOC(C)(C(=O)NCC4CCCCC4)C3)cc2c1 (stereo not drawn) [compound 246]	–	–	75	–	–	log P [1, 3]: 3.55^[a]
CC(C)NC(=O)C12OCCCC1C(c1ccc3ncc(Br)cc3c1)=NO2 (stereo not drawn) [compound 273]	–	–	75	–	–	log P [1, 3]: 2.90[a]
CCn1cc(CNC(=O)C2(c3ccccc3)CC(c3ccc4ncc(Br)cc4c3)=NO2)c(C)n1 (stereo not drawn) [compound 278]	–	–	86	–	–	log P [1, 3]: 3.18[a]; % of efficacy (protection) (Sphaerotheca fuliginea): 100%
C#CC1(C(=O)NC(C)C)CC(c2ccc3ncc(Br)cc3c2)=NO1 (stereo not drawn) [compound 402]	2.92[a]	100	71	–	99	–
C#Cc1cc2cc(C3=NOC(C)(C(=O)NCc4cn(CC)nc4C)C3)ccc2nc1Cl (stereo not drawn) [compound 411]	2.59[a]	–	80	–	–	–
CCCOc1cnc2ccc(C3=NOC(C)(C(=O)NC(C)C)C3)cc2c1 (stereo not drawn) [compound 412]	2.16[a]	–	70	–	–	–
CCOC1(C(=O)NC(C)C)CC(c2ccc3ncc(Br)cc3c2)=NO1 (stereo not drawn) [compound 415]	2.98[a]	–	80	–	–	–
CC(C)NC(=O)C1(CC2CC2)CC(c2ccc3ncc(Br)cc3c2)=NO1 (stereo not drawn) [compound 422]	3.60[a]	–	72	–	–	–
CCCn1cc(CNC(=O)C2(CC3CC3)CC(c3ccc4ncc(Br)cc4c3)=NO2)c(C)n1 (stereo not drawn) [compound 424]	3.33[a]	–	–	–	–	% of efficacy (protection) (Puccinia recondita): 72%
C#Cc1cnc2ccc(C3=NOC(OC)(C(=O)N(CC(F)F)C(C)C)C3)cc2c1 (stereo not drawn) [compound 469]	3.60[a]	97	–	–	–	% of efficacy (protection) (Puccinia recondita): 80%
